From ChEMBL document CHEMBL5154804, “Species-Selective Targeting of Fungal Hsp90: Design, Synthesis, and Evaluation of Novel 4,5-Diarylisoxazole Derivatives for the Combination Treatment of Azole-Resistant Candidiasis” (J Med Chem, 2022)

Key:
Candida albicans [1] = assay: Synergistic antifungal activity against fluconazole-resistant Candida albicans 311 assessed as inhibition of fungal growth in presence of fluconazole by checker board microdilution assay; assay type: functional; note: test concentration or dose not given here
Candida albicans [2] = assay: Synergistic antifungal activity against fluconazole-resistant Candida albicans 100 assessed as inhibition of fungal growth in presence of fluconazole by checker board microdilution assay; assay type: functional
Candida albicans [3] = assay: Synergistic antifungal activity against fluconazole-resistant Candida albicans 103 assessed as inhibition of fungal growth in presence of fluconazole by checker board microdilution assay; assay type: functional
Candida albicans [4] = assay: Synergistic antifungal activity against fluconazole-resistant Candida albicans 904 assessed as inhibition of fungal growth in presence of fluconazole by checker board microdilution assay; assay type: functional; note: test concentration or dose not given here
Heat shock protein HSP90 = Heat shock protein HSP90 (Homo sapiens, UniProt P07900+P08238); assay: Binding affinity to human Hsp90 expressed in Escherichia coli by SPR assay
Candida albicans [5] = assay: Synergistic antifungal activity against fluconazole-resistant Candida albicans 901 assessed as inhibition of fungal growth in presence of fluconazole by checker board microdilution assay; assay type: functional
Candida albicans [6] = assay: Synergistic antifungal activity against fluconazole-resistant Candida albicans 632 assessed as inhibition of fungal growth in presence of fluconazole by checker board microdilution assay; assay type: functional
[7] = Binding affinity to recombinant Candida albicans Hsp90 NBD expressed in Escherichia coli by SPR assay
[8] = Metabolic stability in human liver microsomes assessed as compound remaining in presence of NADPH cofactor under shaking condition for 10 mins measured after 60 mins by LC-MS/MS analysis; assay type: ADME, Microsome; conditions: time 70 min, read-out: Stability
[9] = Metabolic stability in human liver microsomes assessed as half life in presence of NADPH cofactor under shaking condition for 10 mins measured after 5 to 60 mins by LC-MS/MS analysis; assay type: ADME, Microsome; conditions: time 15-70 min
[10] = Metabolic stability in human liver microsomes assessed as intrinsic clearance in presence of NADPH cofactor under shaking condition for 10 mins measured after 5 to 60 mins by LC-MS/MS analysis; assay type: ADME, Microsome; conditions: time 15-70 min
[11] = Metabolic stability in human liver microsomes assessed as microsomal intrinsic clearance in presence of NADPH cofactor under shaking condition for 10 mins measured after 5 to 60 mins by LC-MS/MS analysis; assay type: ADME, Microsome; conditions: time 15-70 min

With `CCNC(=O)c1noc(-c2cc(-c3ccccc3C)c(O)cc2O)c1-c1ccc(CN2CCOCC2)cc1` the MIC80 (Candida albicans [1]) was > 64 µg/mL, the MIC80 (Candida albicans [2]) was > 64 µg/mL and the MIC80 (Candida albicans [3]) was > 64 µg/mL. The MIC80 (Candida albicans [4]) was > 64 µg/mL, the Kd (Heat shock protein HSP90) was > 25 µM and the MIC80 (Candida albicans [5]) was > 64 µg/mL. For the same compound, the MIC80 (Candida albicans [6]) was > 64 µg/mL and the Kd [7] was > 25 µM.

For `CCNC(=O)c1noc(-c2cc(-c3cccc(Cl)c3)c(O)cc2O)c1-c1ccc(CN2CCOCC2)cc1`, the remaining at 1.167 h [8] was 12.1%, the MIC80 (Candida albicans [1]) was 1 µg/mL and the MIC80 (Candida albicans [2]) was 1 µg/mL. For the same compound, the MIC80 (Candida albicans [3]) was 0.5 µg/mL, the MIC80 (Candida albicans [4]) was 0.25 µg/mL and the MIC80 (Candida albicans [5]) was 1 µg/mL. For the same compound, the half-life [9] was 19.3 min, the CLint [10] was 64.8 mL/min/kg and the CLint [11] was 72 µL/min/mg. It also gave an MIC80 (Candida albicans [6]) of 0.5 µg/mL.

In the case of `CCNC(=O)c1noc(-c2cc(-c3cccc(C(C)C)c3)c(O)cc2O)c1-c1ccc(CN2CCOCC2)cc1`, the remaining at 1.167 h [8] is reported as 6.1%, the MIC80 (Candida albicans [1]) is reported as 0.5 µg/mL and the MIC80 (Candida albicans [2]) is reported as 0.25 µg/mL. For the same compound, the MIC80 (Candida albicans [3]) was 0.25 µg/mL, the MIC80 (Candida albicans [4]) was 0.25 µg/mL and the Kd (Heat shock protein HSP90) was > 25 µM. The MIC80 (Candida albicans [5]) was 0.25 µg/mL, the half-life [9] was 15.1 min and the CLint [10] was 82.7 mL/min/kg. For the same compound, the CLint [11] was 91.9 µL/min/mg, the MIC80 (Candida albicans [6]) was 0.5 µg/mL and the Kd [7] was 0.476 µM.

For `Cc1ccc(-c2cc(-c3onc(C(=O)NC4COC4)c3-c3ccc(CN4CCOCC4)cc3)c(O)cc2O)cc1`, the MIC80 (Candida albicans [1]) was > 64 µg/mL, the MIC80 (Candida albicans [2]) was > 64 µg/mL and the MIC80 (Candida albicans [3]) was > 64 µg/mL. For the same compound, the MIC80 (Candida albicans [4]) was > 64 µg/mL, the MIC80 (Candida albicans [5]) was > 64 µg/mL and the MIC80 (Candida albicans [6]) was > 64 µg/mL.
